Results on 35 compounds are retold here after patent US12091411B2, “IRAK degraders and uses thereof” (Kymera Therapeutics, Inc., priority 2022, dated 2024).

Where two headings read alike, the source gives them in different places.

This test deals with T1, IRAK4 (Homo sapiens, UniProt Q9NWZ3).
T1 construct: Degradation of IRAK4 in OCI-LY10 was quantitatively measured using Meso Scale Discovery technology; endogenous in cells; host or cells: OCI-LY10
T1 sequence (Q9NWZ3 1-460): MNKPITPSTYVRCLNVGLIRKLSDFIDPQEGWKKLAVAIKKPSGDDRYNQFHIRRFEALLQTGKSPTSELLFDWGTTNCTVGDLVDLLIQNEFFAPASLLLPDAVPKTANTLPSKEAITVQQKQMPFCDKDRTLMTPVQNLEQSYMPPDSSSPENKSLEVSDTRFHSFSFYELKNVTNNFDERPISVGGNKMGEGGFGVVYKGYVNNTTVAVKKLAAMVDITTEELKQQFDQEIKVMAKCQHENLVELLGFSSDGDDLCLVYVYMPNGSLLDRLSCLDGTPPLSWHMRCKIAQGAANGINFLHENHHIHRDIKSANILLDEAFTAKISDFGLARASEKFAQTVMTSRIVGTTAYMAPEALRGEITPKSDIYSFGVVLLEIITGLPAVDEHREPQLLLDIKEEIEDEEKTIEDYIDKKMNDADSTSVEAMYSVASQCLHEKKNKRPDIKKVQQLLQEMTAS
The test can be described thus: IRAK4 MSD Degradation in OCI-LY10. Type of test: cell-based. As to conditions: OCI-LY10 cells, MSD. In outline: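 OCI-LY10 cells exposed to 8-point 1:3 compound series (top 1 to 10 μM) for 4 to 24 h at 37 °C, 5% CO2. Lysate IRAK4 quantified by MSD sandwich immunoassay. DC50 from three-parameter logistic fit, binned A (<0.01 μM) to D (>0.2 μM or not tested).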

[1] abbreviates: 4 hrs incubation, read-out: IRAK4 degradation in OCI-LY10 at 4 hrs: DC50.
Setting [2] is: 24 hrs incubation, read-out: IRAK4 degradation in OCI-LY10 at 24 hrs: DC50.

The term DC50 denotes the concentration at which degradation of the target reaches its halfway point.

For the compound `O=C1CCC(c2cncc3c(C#CCOC4CCN(C[C@H]5CC[C@H](n6cc(NC(=O)c7cnn8ccc(N9C[C@H]%10C[C@@H]9CO%10)nc78)c(C(F)F)n6)CC5)CC4)cccc23)C(=O)N1` (stereo partly shown) [I-249], the DC50 runs as follows: under setting [1], more than 200 nM; under setting [2], more than 200 nM.

Regarding `O=C1CCC(c2cccc3c(C#CCN4CCN(C[C@H]5CC[C@@H](n6cc(NC(=O)c7cnn8ccc(N9C[C@H]%10C[C@@H]9CO%10)nc78)c(C(F)F)n6)CC5)CC4)cccc23)C(=O)N1` (stereo partly shown) [I-250], the DC50 is, setting by setting: under setting [1], more than 200 nM; under setting [2], 10 to 100 nM.

For `O=C1CCC(c2cncc3c(C#CCN4CCN(C[C@H]5CC[C@@H](n6cc(NC(=O)c7cnn8ccc(N9C[C@H]%10C[C@@H]9CO%10)nc78)c(C(F)F)n6)CC5)CC4)cccc23)C(=O)N1` (stereo partly shown) [I-251], the DC50 is, setting by setting: under setting [1], more than 200 nM; under setting [2], more than 200 nM.

With `COc1cc2nn([C@H]3CC[C@H](CN4CCC5(CC4)CCN(c4cccc6c(C7CCC(=O)NC7=O)cccc46)CC5)CC3)cc2cc1NC(=O)c1cncc(C#N)c1` (stereo partly shown) [I-252], the DC50 is more than 200 nM under setting [1] and 10 to 100 nM under setting [2].

As for `COc1cc2nn([C@H]3CC[C@H](CN4CCC5(CC4)CCN(c4cccc6c(C7CCC(=O)NC7=O)cncc46)CC5)CC3)cc2cc1NC(=O)c1cncc(C#N)c1` (stereo partly shown) [I-253], the DC50 is more than 200 nM under setting [1] and more than 200 nM under setting [2].

On to `COc1cc2nn([C@H]3CC[C@H](CN4CCC5(CC4)CCN(c4ccc(Cl)c(N6CCC(=O)NC6=O)c4)CC5)CC3)cc2cc1NC(=O)c1cncc(C#N)c1` [I-254], for which the DC50 by setting is: under setting [1], more than 200 nM; under setting [2], more than 200 nM.

As to `COc1cc2nn([C@H]3CC[C@H](CN4CCC5(CC4)CCN(c4ccc(Cl)c(C6CCC(=O)NC6=O)c4)CC5)CC3)cc2cc1NC(=O)c1cncc(C#N)c1` (stereo partly shown) [I-255], the DC50 is, setting by setting: under setting [1], more than 200 nM; under setting [2], more than 200 nM.

On to `O=C1CCN(c2cc(C#CCOC3CCN(C[C@H]4CC[C@H](n5cc(NC(=O)c6cnn7ccc(N8C[C@H]9C[C@@H]8CO9)nc67)c(C(F)F)n5)CC4)CC3)ccc2Cl)C(=O)N1` [I-256], for which the DC50 by setting is: under setting [1], more than 200 nM; under setting [2], more than 200 nM.

Consider `O=C1CCC(c2cc(C#CCOC3CCN(C[C@H]4CC[C@H](n5cc(NC(=O)c6cnn7ccc(N8C[C@H]9C[C@@H]8CO9)nc67)c(C(F)F)n5)CC4)CC3)ccc2Cl)C(=O)N1` (stereo partly shown) [I-257], for which the DC50 reads like this: under setting [1], more than 200 nM; under setting [2], more than 200 nM.

In the case of `O=C1CCN(c2cc(C#CCN3CCN(C[C@H]4CC[C@@H](n5cc(NC(=O)c6cnn7ccc(N8C[C@H]9C[C@@H]8CO9)nc67)c(C(F)F)n5)CC4)CC3)ccc2Cl)C(=O)N1` [I-258], the DC50 is more than 200 nM under setting [1] and more than 200 nM under setting [2].

In the case of `O=C1CCC(c2cc(C#CCN3CCN(C[C@H]4CC[C@@H](n5cc(NC(=O)c6cnn7ccc(N8C[C@H]9C[C@@H]8CO9)nc67)c(C(F)F)n5)CC4)CC3)ccc2Cl)C(=O)N1` (stereo partly shown) [I-259], the DC50 was more than 200 nM under setting [1] and more than 200 nM under setting [2].

Turning to `Cn1c(=O)n(C2CCC(=O)NC2=O)c2cccc(C#CCOC3CCN(C[C@H]4CC[C@H](n5cc(NC(=O)c6cccc(C#N)n6)c(C(F)F)n5)CC4)CC3)c21` (stereo partly shown) [I-260], the DC50 reads like this: under setting [1], more than 200 nM; under setting [2], more than 200 nM.

For `Cn1c(=O)n(C2CCC(=O)NC2=O)c2cccc(C#CCN3CCN(C[C@H]4CC[C@H](n5cc(NC(=O)c6cccc(C#N)n6)c(C(F)F)n5)CC4)CC3)c21` (stereo partly shown) [I-261], the DC50 under setting [1] was more than 200 nM and the 50% degradation concentration (DC50) under setting [2] was more than 200 nM.

Consider `Cn1c(=O)n(C2CCC(=O)NC2=O)c2cccc(C#CCOC3CCN(C[C@H]4CC[C@H](n5cc(NC(=O)c6cccc(C#N)n6)c(C(C)(C)O)n5)CC4)CC3)c21` (stereo partly shown) [I-262], for which the DC50 under setting [1] is more than 200 nM and the DC50 under setting [2] is more than 200 nM.

Take `Cn1c(=O)n(C2CCC(=O)NC2=O)c2cccc(C#CCN3CCN(C[C@H]4CC[C@H](n5cc(NC(=O)c6cccc(C#N)n6)c(C(C)(C)O)n5)CC4)CC3)c21` (stereo partly shown) [I-263]: the DC50 by setting is: under setting [1], more than 200 nM; under setting [2], more than 200 nM.

Consider `Cn1c(=O)n(C2CCC(=O)NC2=O)c2cccc(C#CCOC3CCN(C[C@H]4CC[C@H](n5cc(NC(=O)c6cncc(C#N)c6)c(C(F)F)n5)CC4)CC3)c21` (stereo partly shown) [I-264], for which the DC50 is more than 200 nM under setting [1] and more than 200 nM under setting [2].

Turning to `Cn1c(=O)n(C2CCC(=O)NC2=O)c2cccc(C#CCN3CCN(C[C@H]4CC[C@H](n5cc(NC(=O)c6cncc(C#N)c6)c(C(F)F)n5)CC4)CC3)c21` (stereo partly shown) [I-265], the DC50 is, setting by setting: under setting [1], more than 200 nM; under setting [2], more than 200 nM.

In the case of `Cn1c(=O)n(C2CCC(=O)NC2=O)c2cccc(C#CCOC3CCN(C[C@H]4CC[C@H](n5cc(NC(=O)c6cncc(C#N)c6)c(C(C)(C)O)n5)CC4)CC3)c21` (stereo partly shown) [I-266], the DC50 runs as follows: under setting [1], more than 200 nM; under setting [2], more than 200 nM.

Regarding `Cn1c(=O)n(C2CCC(=O)NC2=O)c2cccc(C#CCN3CCN(C[C@H]4CC[C@H](n5cc(NC(=O)c6cncc(C#N)c6)c(C(C)(C)O)n5)CC4)CC3)c21` (stereo partly shown) [I-267], the DC50 was more than 200 nM under setting [1] and more than 200 nM under setting [2].

Consider `Cc1ccc(-c2nn([C@H]3CC[C@H](CN4CCC(OCC#Cc5cccc6c5n(C)c(=O)n6C5CCC(=O)NC5=O)CC4)CC3)cc2NC(=O)c2cncc(C#N)c2)nc1` (stereo partly shown) [I-268], for which the DC50 runs as follows: under setting [1], more than 200 nM; under setting [2], more than 200 nM.

For `Cc1ccc(-c2nn([C@H]3CC[C@H](CN4CCN(CC#Cc5cccc6c5n(C)c(=O)n6C5CCC(=O)NC5=O)CC4)CC3)cc2NC(=O)c2cncc(C#N)c2)nc1` (stereo partly shown) [I-269], the DC50 is more than 200 nM under setting [1] and more than 200 nM under setting [2].

Turning to `CN(C[C@H]1CC[C@H](n2cc(CC(=O)c3cnn4ccc(N5CCC(C)(C)CC5)nc34)c(C(F)F)n2)CC1)C1CCN(c2cccc3c2n(C)c(=O)n3C2CCC(=O)NC2=O)CC1` (stereo partly shown) [I-270], the DC50 runs as follows: under setting [1], more than 200 nM; under setting [2], 10 to 100 nM.

In the case of `CC1CCN(c2ccn3ncc(C(=O)Nc4cn([C@H]5CC[C@H](CN(C)C6CCN(c7cccc8c7n(C)c(=O)n8C7CCC(=O)NC7=O)CC6)CC5)nc4C(F)F)c3n2)CC1` (stereo partly shown) [I-271], the DC50 was more than 200 nM under setting [1] and less than 10 nM under setting [2].

With `CN(C[C@H]1CC[C@H](n2cc(NC(=O)c3cnn4ccc(N5CCC6(CC5)CC6)nc34)c(C(F)F)n2)CC1)C1CCN(c2cccc3c2n(C)c(=O)n3C2CCC(=O)NC2=O)CC1` (stereo partly shown) [I-272], the DC50 reads like this: under setting [1], more than 200 nM; under setting [2], less than 10 nM.

`CN(C[C@H]1CC[C@H](n2cc(NC(=O)c3cnn4ccc(N5CCC(F)(F)CC5)nc34)c(C(F)F)n2)CC1)C1CCN(c2cccc3c2n(C)c(=O)n3C2CCC(=O)NC2=O)CC1` (stereo partly shown) [I-273]: the DC50 by setting is: under setting [1], more than 200 nM; under setting [2], less than 10 nM.

Take `CN(C[C@H]1CC[C@H](n2cc(NC(=O)c3cnn4ccc(N5CC6(CC6)C5)nc34)c(C(F)F)n2)CC1)C1CCN(c2cccc3c2n(C)c(=O)n3C2CCC(=O)NC2=O)CC1` (stereo partly shown) [I-274]: the DC50 is more than 200 nM under setting [1] and less than 10 nM under setting [2].

Turning to `CN(C[C@H]1CC[C@H](n2cc(NC(=O)c3cnn4ccc(N5CC(C)(C)C5)nc34)c(C(F)F)n2)CC1)C1CCN(c2cccc3c2n(C)c(=O)n3C2CCC(=O)NC2=O)CC1` (stereo partly shown) [I-275], the DC50 runs as follows: under setting [1], more than 200 nM; under setting [2], less than 10 nM.

Consider `CN(C[C@H]1CC[C@H](n2cc(NC(=O)c3cnn4ccc(N5CC(F)(F)C5)nc34)c(C(F)F)n2)CC1)C1CCN(c2cccc3c2n(C)c(=O)n3C2CCC(=O)NC2=O)CC1` (stereo partly shown) [I-276], for which the DC50 was more than 200 nM under setting [1] and less than 10 nM under setting [2].

Regarding `CN(C[C@H]1CC[C@H](n2cc(NC(=O)c3cnn4ccc(N5CCC5)nc34)c(C(F)F)n2)CC1)C1CCN(c2cccc3c2n(C)c(=O)n3C2CCC(=O)NC2=O)CC1` (stereo partly shown) [I-277], the DC50 was more than 200 nM under setting [1] and less than 10 nM under setting [2].

For `CN(C[C@H]1CC[C@H](n2cc(NC(=O)c3cnn4ccc(N5CCCC5)nc34)c(C(F)F)n2)CC1)C1CCN(c2cccc3c2n(C)c(=O)n3C2CCC(=O)NC2=O)CC1` (stereo partly shown) [I-278], the DC50 reads like this: under setting [1], more than 200 nM; under setting [2], less than 10 nM.

For the compound `Cn1c(=O)n(C2CCC(=O)NC2=O)c2cccc(C#CCN3CCN(C[C@H]4CC[C@H](n5cc(NC(=O)c6cnn7ccc(N8C[C@H]9C[C@@H]8CO9)nc67)c(C(C)(C)O)n5)CC4)CC3)c21` (stereo partly shown) [I-279], the DC50 is more than 200 nM under setting [1] and more than 200 nM under setting [2].

As to `Cn1c(=O)n(C2CCC(=O)NC2=O)c2cccc(C#CCOC3CCN(C[C@H]4CC[C@H](n5cc(NC(=O)c6cnn7ccc(N8C[C@H]9C[C@@H]8CO9)nc67)c(F)n5)CC4)CC3)c21` (stereo partly shown) [I-280], the half-maximal degradation concentration (DC50) under setting [1] is more than 200 nM and the DC50 under setting [2] is more than 200 nM.

As for `Cn1c(=O)n(C2CCC(=O)NC2=O)c2cccc(C#CCN3CCN(C[C@H]4CC[C@H](n5cc(NC(=O)c6cnn7ccc(N8C[C@H]9C[C@@H]8CO9)nc67)c(F)n5)CC4)CC3)c21` (stereo partly shown) [I-281], the DC50 under setting [1] was more than 200 nM and the DC50 under setting [2] is more than 200 nM.

With `CC1CCN(c2ccn3ncc(C(=O)Nc4cn([C@H]5CC[C@H](CN6CCN(CC#Cc7cccc8c7n(C)c(=O)n8C7CCC(=O)NC7=O)CC6)CC5)nc4C(F)F)c3n2)CC1` (stereo partly shown) [I-282], the DC50 reads like this: under setting [1], more than 200 nM; under setting [2], 10 to 100 nM.

As for `Cn1c(=O)n(C2CCC(=O)NC2=O)c2cccc(C#CCN3CCN(C[C@H]4CC[C@H](n5cc(NC(=O)c6cnn7ccc(N8CCCCCC8)nc67)c(C(F)F)n5)CC4)CC3)c21` (stereo partly shown) [I-283], the DC50 is more than 200 nM under setting [1] and 10 to 100 nM under setting [2].
